Structures can show the parent of a compound that is named as a salt.
These compounds were tested against hTRPA1 (Homo sapiens, UniProt O75762) (assay: Dose response calcium flux (FLIPR) assay, ChanTest hTRPA1-CHO stably transfected cell line, cinnamaldehyde agonist). Settings: CHO-K1 Tet-On hTRPA1 cells, 100 uM cinnamaldehyde agonist, 30 min preincubation.
Assay type: cell-based
Description: Dose Response Assay:ChanTest hTRPA1-CHO Stably Transfected Cell Line
CHO-K1 Tet-On_HOMSA_TRPA1_Clone_20
Growth Media for CHO-K1 Tet-On_HOMSA_TRPA1_Clone_20 • Ham's F-12 with 10% tetracycline-free FBS • 1× penicillin-streptomycin • 1× glutamax • 0.01 mg/ml Blasticidin • 0.40 mg/ml Zeocin • The cell line doubling rate was ˜15 h. […] Experiments were run at 24 h post induction.
Plating Conditions CHOK1/TRPA1 Cells: • Harvested cells with 0.025% trypsin/EDTA. • Resuspended cells in growth media without selection antibiotics. • Measured cell density and diluted to 2.4×10^5 cells/ml in media containing 1 ug/ml Doxycycline Plate 25 ul/well into 384 well black/clear tissue culture-treated plates. • Incubated overnight at 37° C.
Replacement Buffer: Hank's Balanced Salt Solution, 20 mM HEPES along with 0.005% BSA and 2× Probenecid
Dye Loading Buffer: Cal-3 NW Calcium dye was prepared by dissolving the contents of one vial with […] Hank's Balanced Salt Solution containing 20 mM HEPES.
AP-18, stock 10 mM, prepare 3.5× compound dilution in a Compound Buffer (HBSS/20 mM HEPES/0.005% BSA)—final concentration 10 uM.
Preparation of Cinnamaldehyde (Agonist Addition): • FW=132.16 • Specific gravity=1.046 gm/cc • 1.32 gm/1.046 gm/cc=1.26 ml of stock • Add 1.74 ml DMSO=3.3 M stock • Working solution 4.5× (final 100 uM in Compound Buffer: HBSS/20 mM HEPES/0.005% BSA)
Compounds dilutions were prepared from 5 or 10 mM stock (100% DMSO): • Adjustments of volumes and concentrations were made at time of titration to reflect desired final assay concentrations. • Compounds were tested at either 20 μM three folds dilution 11 steps out or 30 μM two folds dilution 11 steps out. • 3 μl of diluted compound were transferred into Weidmann 384-well plate in duplicates side-by-side. • Compound plates were resuspended with 100 ul of HBSS/20 mM HEPES/0.005% BSA buffer (Compound Buffer): • column 1A-H: buffer/DMSO (bk) • column 2A-H: AP-18 (control antagonist for CHOK1 TRPA1 cells) • column 1I-P: ATP (control for CHOK1 teton cells) • column 2I-P: 2APB (control antagonist for CHOK1/TRPM8 cells).
Growth media was removed from the cell plates (20 ul) and 20 μl of the Replacement Buffer was added followed by addition of 25 μl of diluted dye. All three steps were performed using a Plate Washer BioTek 407. The plates were then incubated for 30′ at RT.
After incubation, both the cell and compound plates were brought to the FLIPR and 20 μl of the diluted compounds/antagonist/bk were transferred to the cell plates by the FLIPR. Plates were then incubated for 30′ at room temperature. After 30′ incubation, plates were returned to the FLIPR and 20 μl of 4.5× Cinnamaldehyde was added to the cell plates. During the compound addition as well as agonist addition, fluorescence readings were taken simultaneously from all 384 wells of the cell plate every 1.5 seconds. Five readings were taken to establish a stable baseline, then 20 μl of sample was rapidly (30 ul/sec) and simultaneously added to each well of the cell plate. The fluorescence was continuously monitored before, during and after sample/agonist addition for a total elapsed time of 100 seconds (compound addition) and 120 seconds (agonist addition). Responses (increase in peak fluorescence) in each well following agonist addition was determined. The initial fluorescence reading from each well, prior to ligand stimulation, was used a zero baseline value for the data from that well.

Chain of hTRPA1 (O75762 whole entry): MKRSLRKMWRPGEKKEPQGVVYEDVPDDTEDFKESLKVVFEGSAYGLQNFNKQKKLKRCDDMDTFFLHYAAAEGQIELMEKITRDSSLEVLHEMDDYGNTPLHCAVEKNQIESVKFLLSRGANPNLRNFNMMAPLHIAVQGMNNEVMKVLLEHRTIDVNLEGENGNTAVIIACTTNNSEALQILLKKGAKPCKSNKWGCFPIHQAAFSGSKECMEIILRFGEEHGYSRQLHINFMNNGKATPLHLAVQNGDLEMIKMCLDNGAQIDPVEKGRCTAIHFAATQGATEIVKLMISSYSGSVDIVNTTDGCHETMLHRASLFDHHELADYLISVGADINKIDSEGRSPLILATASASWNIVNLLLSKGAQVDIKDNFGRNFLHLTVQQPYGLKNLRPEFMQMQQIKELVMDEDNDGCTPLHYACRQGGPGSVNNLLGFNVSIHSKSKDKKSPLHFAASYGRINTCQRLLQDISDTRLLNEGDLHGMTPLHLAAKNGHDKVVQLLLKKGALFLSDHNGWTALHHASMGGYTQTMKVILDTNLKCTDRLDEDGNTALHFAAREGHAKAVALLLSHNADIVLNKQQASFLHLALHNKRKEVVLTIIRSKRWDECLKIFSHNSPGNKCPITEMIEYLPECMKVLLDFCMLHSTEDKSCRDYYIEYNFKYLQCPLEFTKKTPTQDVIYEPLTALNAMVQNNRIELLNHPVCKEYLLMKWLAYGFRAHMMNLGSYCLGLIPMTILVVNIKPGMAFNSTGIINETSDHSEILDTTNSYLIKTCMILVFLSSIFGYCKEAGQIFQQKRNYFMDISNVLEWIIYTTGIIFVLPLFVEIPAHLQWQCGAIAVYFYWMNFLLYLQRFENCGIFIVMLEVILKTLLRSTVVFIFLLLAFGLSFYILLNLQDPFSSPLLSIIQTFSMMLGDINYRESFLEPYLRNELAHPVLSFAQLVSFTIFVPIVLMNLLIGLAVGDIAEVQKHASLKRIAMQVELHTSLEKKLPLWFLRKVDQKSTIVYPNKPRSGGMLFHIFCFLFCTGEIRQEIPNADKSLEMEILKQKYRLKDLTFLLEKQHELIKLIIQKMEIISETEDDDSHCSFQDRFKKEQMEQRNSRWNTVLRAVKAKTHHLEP

Row | SMILES | IC50 [µM]
1 | O=C(Nc1ccc(Cl)c(F)c1)O[C@@H](CN1CCO[C@H](c2ccc(C(F)(F)F)nc2)C1)C(F)(F)F [Example 22, (4-Chloro-3-fluorophenyl)-carbamic acid (S)-2,2,2-trifluoro-1-[(R)-2-(6-trifluoromethyl-pyridin-3-yl)-morpholin-4-ylmethyl]-ethyl ester] | 0.0643
2 | O=C(Nc1ccc(Cl)cc1)OC(CN1CCOCC1)C(F)(F)F (stereo not drawn) [Example 41, (4-Chlorophenyl)-carbamic acid 2,2,2-trifluoro-1-morpholin-4-ylmethyl-ethyl ester] | 2.14
3 | O=C(Nc1ccc(Cl)c(F)c1)O[C@@H](CN1CCO[C@H](c2ccc(F)cc2)C1)C(F)(F)F [Example 36, (4-Chloro-3-fluorophenyl)carbamic acid (S)-1-[(R)-2-(4-fluorophenyl)-morpholin-4-ylmethyl]-2,2,2-trifluoroethyl ester hydrochloride] | 0.0922
4 | O=C(Nc1ccc(Cl)c(F)c1)O[C@@H](CN1CCO[C@H](c2ccc(F)c(C(F)(F)F)c2)C1)C(F)(F)F [Example 3, (4-Chloro-3-fluorophenyl)-carbamic acid (S)-2,2,2-trifluoro-1-[(R)-2-(4-fluoro-3-trifluoromethylphenyl)-morpholin-4-ylmethyl]-ethyl ester hydrochloride] | 0.0143
5 | O=C(Nc1ccc(Cl)cc1)O[C@@H](CN1CCS(=O)(=O)CC1)C(F)(F)F [Example 48, (4-Chlorophenyl)-carbamic acid (S)-1-(1,1-dioxo-1λ^6-thiomorpholin-4-ylmethyl)-2,2,2-trifluoroethyl ester hydrochloride] | 3.56
6 | O=C(Nc1ccc(Cl)c(F)c1)O[C@@H](CN1CCO[C@H](c2ccnc(C(F)(F)F)n2)C1)C(F)(F)F [Example 24, (4-Chloro-3-fluorophenyl)-carbamic acid (S)-2,2,2-trifluoro-1-[(S)-2-(2-trifluoromethylpyrimidin-4-yl)-morpholin-4-ylmethyl]-ethyl ester hydrochloride] | 0.0711
7 | O=C(Nc1ccc(Cl)cc1)O[C@@H](CN1CCS(=O)(=O)[C@H](c2cccc(C(F)(F)F)c2)C1)C(F)(F)F [Example 18, (4-Chlorophenyl)-carbamic acid (S)-1-[(R)-1,1-dioxo-2-(3-trifluoromethylphenyl)-1λ^6-thiomorpholin-4-ylmethyl]-2,2,2-trifluoroethyl ester] | 0.0425
8 | COc1cccc(C[C@@H]2CN(C[C@H](OC(=O)Nc3ccc(Cl)cc3)C(F)(F)F)CCO2)n1 [Example 51, (4-Chlorophenyl)-carbamic acid (S)-2,2,2-trifluoro-1-[(R)-2-(6-methoxy-pyridin-2-ylmethyl)-morpholin-4-ylmethyl]ethyl ester] | 0.398
9 | O=C(Nc1ccc(Cl)c(F)c1)O[C@@H](CN1CCO[C@@H](c2ccc(F)c(F)c2)C1)C(F)(F)F (single isomer, unassigned) [Example 35, hydrochloride] | 0.196
10 | COc1cccc([C@@H]2CN(C[C@H](OC(=O)Nc3ccc(Cl)cc3)C(F)(F)F)CCS2(=O)=O)c1 [Example 16, (4-Chlorophenyl)-carbamic acid (S)-2,2,2-trifluoro-1-[(R)-2-(3-methoxyphenyl)-1,1-dioxo-1λ^6-thiomorpholin-4-ylmethyl]ethyl ester] | 0.152
11 | O=C(Nc1ccc(Cl)c(F)c1)O[C@@H](CN1CCO[C@H](c2cccc(C(F)(F)F)c2)C1)C(F)(F)F [Example 13, (4-Chloro-3-fluorophenyl)-carbamic acid (S)-2,2,2-trifluoro-1-[(R)-2-(3-trifluoromethylphenyl)-morpholin-4-ylmethyl]-ethyl ester hydrochloride] | 0.00635
12 | O=C(Nc1ccc(Cl)cc1)O[C@@H](CN1CCOC(c2ccc(F)cc2)C1)C(F)(F)F (stereo partly drawn) [Example 42, (4-Chlorophenyl)carbamic acid (S)-2,2,2-trifluoro-1-[2-(4-fluorophenyl)-morpholin-4-ylmethyl]-ethyl ester hydrochloride] | 0.0834

Continued by falling IC50, values first:

Row | IC50 [µM] | SMILES
13 | 3.58 | O=C(Nc1ccc(Cl)cc1)O[C@@H](CN1CCO[C@@H](Cc2ccccc2)C1)C(F)(F)F (single isomer, unassigned) [Example 10, hydrochloride]
14 | 1.63 | Cc1ccc(NC(=O)O[C@@H](CN2CCOC(c3ccc(C(F)(F)F)cc3)C2)C(F)(F)F)cc1Cl (stereo partly drawn) [Example 33, (3-Chloro-4-methylphenyl)-carbamic acid (S)-2,2,2-trifluoro-1-[2-(4-trifluoromethylphenyl)-morpholin-4-ylmethyl]-ethyl ester hydrochloride]
15 | 0.846 | CC(C)c1nccc([C@H]2CN(C[C@H](OC(=O)Nc3ccc(Cl)c(F)c3)C(F)(F)F)CCO2)n1 (single isomer, unassigned) [Example 26, hydrochloride]
16 | 0.803 | COc1cccc([C@H]2CN(C[C@H](OC(=O)Nc3ccc(Cl)cc3)C(F)(F)F)CCO2)c1 (single isomer, unassigned) [Example 15]
17 | 0.451 | O=C(Nc1ccc(Cl)c(F)c1)O[C@@H](CN1CCO[C@@H](c2ccc(C(F)(F)F)cc2)C1)C(F)(F)F [Example 32, (4-Chloro-3-fluorophenyl)-carbamic acid (S)-2,2,2-trifluoro-1-[(S)-2-(4-trifluoromethylphenyl)-morpholin-4-ylmethyl]-ethyl ester hydrochloride]
18 | 0.198 | O=C(Nc1ccc(Cl)cc1)O[C@@H](CN1CCO[C@@H](c2ccc(C(F)(F)F)cc2)C1)C(F)(F)F (single isomer, unassigned) [Example 30, hydrochloride]
19 | 0.13 | O=C(Nc1ccc(Cl)cc1)O[C@@H](CN1CCOC(c2cccc(F)c2)C1)C(F)(F)F (stereo partly drawn) [Example 47, (4-Chlorophenyl)-carbamic acid (S)-2,2,2-trifluoro-1-[2-(3-fluorophenyl)-morpholin-4-ylmethyl]-ethyl ester hydrochloride]
20 | 0.115 | O=C(Nc1ccc(Cl)cc1)O[C@@H](CN1CCO[C@H](Cc2cccs2)C1)C(F)(F)F [Example 49, (4-Chlorophenyl)-carbamic acid (S)-2,2,2-trifluoro-1-((R)-2-thiophen-2-ylmethyl-morpholin-4-ylmethyl)-ethyl ester hydrochloride]
21 | 0.0178 | O=C(Nc1ccc(Cl)cc1)O[C@@H](CN1CCOC(c2cccc(Cl)c2)C1)C(F)(F)F (stereo partly drawn) [Example 43, (4-Chlorophenyl)-carbamic acid (S)-2,2,2-trifluoro-1-[2-(3-chlorophenyl)-morpholin-4-ylmethyl]-ethyl ester hydrochloride]
22 | 0.0103 | O=C(Nc1ccc(Cl)cc1)O[C@@H](CN1CCOC(c2cc(Cl)cc(Cl)c2)C1)C(F)(F)F (stereo partly drawn) [Example 44, (4-Chlorophenyl)-carbamic acid (S)-2,2,2-trifluoro-1-[2-(3,5-dichlorophenyl)-morpholin-4-ylmethyl]-ethyl ester hydrochloride]
23 | 0.00764 | O=C(Nc1ccc(Cl)cc1)O[C@@H](CN1CCO[C@H](c2ccc(C(F)(F)F)cc2)C1)C(F)(F)F [Example 29, (4-Chlorophenyl)-carbamic acid (S)-2,2,2-trifluoro-1-[(R)-2-(4-trifluoromethylphenyl)-morpholin-4-ylmethyl]-ethyl ester hydrochloride]
24 | 0.00558 | O=C(Nc1ccc(Cl)cc1)O[C@@H](CN1CCO[C@H](c2cccc(C(F)(F)F)c2)C1)C(F)(F)F [Example 11, (4-Chlorophenyl)-carbamic acid (S)-2,2,2-trifluoro-1-[(R)-2-(3-trifluoromethylphenyl)-morpholin-4-ylmethyl]-ethyl ester hydrochloride]

Source: patent publication US9353096B2, “Substituted phenylcarbamate compounds” (Hoffmann-La Roche Inc., priority 2012, dated 2016)
